Data taken from US20240228458A1, “PYRIMIDINE DERIVATIVE HAVING PROTEIN KINASE INHIBITORY ACTIVITY, AND THERAPEUTIC PHARMACEUTICAL COMPOSITION COMPRISING SAME” (THERAPEX CO., LTD., priority 2021, published 2024).

What was measured:
Type in all cases: cell-based
[1] = test system: Ba/F3 cells expressing del19/T790M/C797S (EGFR-DTC); assay: Growth inhibition (GI50) of Ba/F3 cells expressing del19/T790M/C797S (EGFR-DTC), Celltiter glo; settings: Mus musculus, BaF3, 72 h
How it was run: (§1)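 Antiproliferative activity was assessed in EGFR-mutant or wild-type Ba/F3 cells over 72 h at 37 °C with 5% CO2. Cell viability was determined by CellTiter-Glo, and GI50 taken as the compound concentration inhibiting growth by 50%.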

[2] = test system: Ba/F3 cells expressing L858R/T790M (EGFR-LT); assay: Growth inhibition (GI50) of Ba/F3 cells expressing L858R/T790M (EGFR-LT), Celltiter glo; settings: Mus musculus, BaF3, 72 h
How it was run: as §1

[3] = test system: Ba/F3 cells expressing del19/T790M (EGFR-DT); assay: Growth inhibition (GI50) of Ba/F3 cells expressing del19/T790M (EGFR-DT), Celltiter glo; settings: Mus musculus, BaF3, 72 h
How it was run: as §1

[4] = test system: parental Ba/F3 cell line; assay: Growth inhibition (GI50) of the parental Ba/F3 cell line (not introduced with EGFR variants), Celltiter glo; settings: Mus musculus, BaF3, 72 h, parental Ba/F3 cells
How it was run: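 Viable cell count by CellTiter-Glo after 72 h at 37 °C gave GI50 values (μM, 50% growth inhibition). Cells lacking EGFR variants were seeded at 100,000 cells/ml and dosed 4 h later with 4-fold serial dilutions from a 2 mM stock, 0.5% DMSO.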

[5] = test system: Ba/F3 cells expressing EGFR-wt; assay: Growth inhibition (GI50) of Ba/F3 cells expressing EGFR-wt, Celltiter glo; settings: Mus musculus, BaF3, 72 h
How it was run: as §1

[6] = test system: Ba/F3 cells expressing L858R/T790M/C797S (EGFR-LTC); assay: Growth inhibition (GI50) of Ba/F3 cells expressing L858R/T790M/C797S (EGFR-LTC), Celltiter glo; settings: Mus musculus, BaF3, 72 h
How it was run: as §1

Molecule CN1CCN(C2CCN(c3cc(Cl)c(Nc4ncc(Cl)c(Nc5cc6c(cc5NS(C)(=O)=O)CCO6)n4)cc3Cl)CC2)CC1 [Example 205, N-(6-((5-chloro-2-((2,5-dichloro-4-(4-(4-methylpiperazin-1-yl)piperidin-1-yl)phenyl)amino)pyrimidin-4-yl)amino)-2,3-dihydrobenzofuran-5-yl)methanesulfonamide] has a GI50 [1] of 1 to 25 nM, a GI50 [2] of 1 to 25 nM and a GI50 [3] of 1 to 25 nM. For the same molecule, the GI50 [4] was 2000 to 10000 nM, the GI50 [5] was 25 to 100 nM and the GI50 [6] was 1 to 25 nM.

Work on CCc1cc(Nc2ncc(Cl)c(Nc3cc4c(cc3NS(C)(=O)=O)CCO4)n2)c(OC)cc1N1CCC(N2CCN(C)CC2)CC1 [Example 206, N-(6-((5-chloro-2-((5-ethyl-2-methoxy-4-(4-(4-methylpiperazin-1-yl)piperidin-1-yl)phenyl)amino)pyrimidin-4-yl)amino)-2,3-dihydrobenzofuran-5-yl)methanesulfonamide] yielded a GI50 [1] of 1 to 25 nM, a GI50 [2] of 1 to 25 nM and a GI50 [3] of 1 to 25 nM. It also gave a GI50 [4] of 2000 to 10000 nM, a GI50 [5] of 100 to 500 nM and a GI50 [6] of 25 to 100 nM.

COc1cc(N2CCC(N3CCNCC3)CC2)c(C)cc1Nc1ncc(Cl)c(Nc2cc3c(cc2NS(C)(=O)=O)CCO3)n1 [Example 207, N-(6-((5-chloro-2-((2-methoxy-5-methyl-4-(4-(piperazin-1-yl)piperidin-1-yl)phenyl)amino)pyrimidin-4-yl)amino)-2,3-dihydrobenzofuran-5-yl)methanesulfonamide] was tested, and the GI50 [1] was 25 to 100 nM, the GI50 [2] was 1 to 25 nM and the GI50 [3] was 25 to 100 nM. It also gave a GI50 [4] of 2000 to 10000 nM, a GI50 [5] of 100 to 500 nM and a GI50 [6] of 25 to 100 nM.

Molecule COc1cc(N2CCC(N3CCN(C4CC4)CC3)CC2)c(C)cc1Nc1ncc(Cl)c(Nc2cc3c(cc2NS(C)(=O)=O)CCO3)n1 [Example 208, N-(6-((5-chloro-2-((4-(4-(4-cyclopropylpiperazin-1-yl)piperidin-1-yl)-2-methoxy-5-methylphenyl)amino)pyrimidin-4-yl)amino)-2,3-dihydrobenzofuran-5-yl)methanesulfonamide] has a GI50 [1] of 1 to 25 nM, a GI50 [2] of 1 to 25 nM and a GI50 [3] of 1 to 25 nM. It also gave a GI50 [4] of 2000 to 10000 nM, a GI50 [5] of 100 to 500 nM and a GI50 [6] of 25 to 100 nM.

COc1cc(N2CCC(N3CCC(N(C)C)C3)CC2)c(C)cc1Nc1ncc(Cl)c(Nc2cc3c(cc2NS(C)(=O)=O)CCO3)n1 (stereo not drawn) [Example 209, N-(6-((5-chloro-2-((4-(4-(3-(dimethylamino)pyrrolidin-1-yl)piperidin-1-yl)-2-methoxy-5-methylphenyl)amino)pyrimidin-4-yl)amino)-2,3-dihydrobenzofuran-5-yl)methanesulfonamide] showed a GI50 [1] of 1 to 25 nM, a GI50 [2] of 1 to 25 nM and a GI50 [3] of 25 to 100 nM. The GI50 [4] was 2000 to 10000 nM, the GI50 [5] was 100 to 500 nM and the GI50 [6] was 25 to 100 nM.

For Cc1cc(Nc2ncc(Cl)c(Nc3cc4c(cc3NS(C)(=O)=O)CCO4)n2)c(Cl)cc1N1CCC(N2CCC(N(C)C)C2)CC1 (stereo not drawn) [Example 210, N-(6-((5-chloro-2-((2-chloro-4-(4-(3-(dimethylamino)pyrrolidin-1-yl)piperidin-1-yl)-5-methylphenyl)amino)pyrimidin-4-yl)amino)-2,3-dihydrobenzofuran-5-yl)methanesulfonamide], the GI50 [1] was 100 to 500 nM, the GI50 [2] was 25 to 100 nM and the GI50 [3] was 25 to 100 nM. The GI50 [4] was 2000 to 10000 nM, the GI50 [5] was 500 to 2000 nM and the GI50 [6] was 25 to 100 nM.

For COc1cc(N2CCC(N3CCC(N(C)C)C3)CC2)c(C)cc1Nc1ncc(Br)c(Nc2cc3c(cc2NS(C)(=O)=O)CCO3)n1 (stereo not drawn) [Example 211, N-(6-((5-bromo-2-((4-(4-(3-(dimethylamino)pyrrolidin-1-yl)piperidin-1-yl)-2-methoxy-5-methylphenyl)amino)pyrimidin-4-yl)amino)-2,3-dihydrobenzofuran-5-yl)methanesulfonamide], the GI50 [1] was 25 to 100 nM, the GI50 [2] was 25 to 100 nM and the GI50 [3] was 1 to 25 nM. It also gave a GI50 [4] of 2000 to 10000 nM, a GI50 [5] of 100 to 500 nM and a GI50 [6] of 1 to 25 nM.

For COc1cc(N2CCC(N3CCN(C4CC4)CC3)CC2)c(C)cc1Nc1ncc(Br)c(Nc2cc3c(cc2NS(C)(=O)=O)CCO3)n1 [Example 212, N-(6-((5-bromo-2-((4-(4-(4-cyclopropylpiperazin-1-yl)piperidin-1-yl)-2-methoxy-5-methylphenyl)amino)pyrimidin-4-yl)amino)-2,3-dihydrobenzofuran-5-yl)methanesulfonamide], the GI50 [1] was 25 to 100 nM, the GI50 [2] was 1 to 25 nM and the GI50 [3] was 1 to 25 nM. The GI50 [4] was 2000 to 10000 nM, the GI50 [5] was 100 to 500 nM and the GI50 [6] was 1 to 25 nM.

In the case of Cc1cc(Nc2ncc(Br)c(Nc3cc4c(cc3NS(C)(=O)=O)CCO4)n2)c(Cl)cc1N1CCC(N2CCC(N(C)C)C2)CC1 (stereo not drawn) [Example 213, N-(6-((5-bromo-2-((2-chloro-4-(4-(3-(dimethylamino)pyrrolidin-1-yl)piperidin-1-yl)-5-methylphenyl)amino)pyrimidin-4-yl)amino)-2,3-dihydrobenzofuran-5-yl)methanesulfonamide], the GI50 [1] was 25 to 100 nM, the GI50 [2] was 100 to 500 nM and the GI50 [3] was 1 to 25 nM. The GI50 [4] was 2000 to 10000 nM, the GI50 [5] was 100 to 500 nM and the GI50 [6] was 25 to 100 nM.

Cc1cc(Nc2ncc(Br)c(Nc3cc4c(cc3NS(C)(=O)=O)CCO4)n2)c(Cl)cc1N1CCC(N2CCCC(N(C)C)C2)CC1 (stereo not drawn) [Example 214, N-(6-((5-bromo-2-((2-chloro-4-(3-(dimethylamino)-[1,4′-bipiperidin]-1′-yl)-5-methylphenyl)amino)pyrimidin-4-yl)amino)-2,3-dihydrobenzofuran-5-yl)methanesulfonamide] showed a GI50 [1] of 25 to 100 nM, a GI50 [2] of 1 to 25 nM and a GI50 [3] of 1 to 25 nM. It also gave a GI50 [4] of 2000 to 10000 nM, a GI50 [5] of 100 to 500 nM and a GI50 [6] of 25 to 100 nM.

In the case of COc1cc(N2CCC(N3CCNCC3)CC2)c(C)cc1Nc1ncc(Br)c(Nc2cc3c(cc2NS(C)(=O)=O)CCO3)n1 [Example 215, N-(6-((5-bromo-2-((2-methoxy-5-methyl-4-(4-(piperazin-1-yl)piperidin-1-yl)phenyl)amino)pyrimidin-4-yl)amino)-2,3-dihydrobenzofuran-5-yl)methanesulfonamide], the GI50 [1] was 25 to 100 nM, the GI50 [2] was 25 to 100 nM and the GI50 [3] was 1 to 25 nM. The GI50 [4] was 2000 to 10000 nM, the GI50 [5] was 100 to 500 nM and the GI50 [6] was 25 to 100 nM.

Molecule COc1cc(N2CCC(N3CCCC(N(C)C)C3)CC2)c(Cl)cc1Nc1ncc(Br)c(Nc2cc3c(cc2NS(C)(=O)=O)CCO3)n1 (stereo not drawn) [Example 216, N-(6-((5-bromo-2-((5-chloro-4-(3-(dimethylamino)-[1,4′-bipiperidin]-1′-yl)-2-methoxyphenyl)amino)pyrimidin-4-yl)amino)-2,3-dihydrobenzofuran-5-yl)methanesulfonamide] has a GI50 [1] of 1 to 25 nM, a GI50 [2] of 1 to 25 nM and a GI50 [3] of 1 to 25 nM. It also gave a GI50 [4] of 2000 to 10000 nM, a GI50 [5] of 25 to 100 nM and a GI50 [6] of 25 to 100 nM.

With CN1CCN(C2CCN(c3cc(Cl)c(Nc4ncc(Br)c(Nc5cc6c(cc5NS(C)(=O)=O)CCO6)n4)cc3Cl)CC2)CC1 [Example 217, N-(6-((5-bromo-2-((2,5-dichloro-4-(4-(4-methylpiperazin-1-yl)piperidin-1-yl)phenyl)amino)pyrimidin-4-yl)amino)-2,3-dihydrobenzofuran-5-yl)methanesulfonamide] the GI50 [1] was 1 to 25 nM, the GI50 [2] was 1 to 25 nM and the GI50 [3] was 1 to 25 nM. It also gave a GI50 [4] of 500 to 2000 nM, a GI50 [5] of 100 to 500 nM and a GI50 [6] of 1 to 25 nM.

Work on COc1cc(N2CCC(N3CCCC(N(C)C)C3)CC2)c(C)cc1Nc1ncc(Cl)c(Nc2cc3c(cc2NS(C)(=O)=O)CCO3)n1 (stereo not drawn) [Example 218, N-(6-((5-chloro-2-((4-(3-(dimethylamino)-[1,4′-bipiperidin]-1′-yl)-2-methoxy-5-methylphenyl)amino)pyrimidin-4-yl)amino)-2,3-dihydrobenzofuran-5-yl)methanesulfonamide] yielded a GI50 [1] of 1 to 25 nM, a GI50 [2] of 25 to 100 nM and a GI50 [3] of 1 to 25 nM. The GI50 [4] was 500 to 2000 nM, the GI50 [5] was 100 to 500 nM and the GI50 [6] was 100 to 500 nM.

COc1cc(N2CCC(N3CCCC(N(C)C)C3)CC2)c(Cl)cc1Nc1ncc(Cl)c(Nc2cc3c(cc2NS(C)(=O)=O)CCO3)n1 (stereo not drawn) [Example 219, N-(6-((5-chloro-2-((5-chloro-4-(3-(dimethylamino)-[1,4′-bipiperidin]-1′-yl)-2-methoxyphenyl)amino)pyrimidin-4-yl)amino)-2,3-dihydrobenzofuran-5-yl)methanesulfonamide] was tested, and the GI50 [1] was 1 to 25 nM, the GI50 [2] was 1 to 25 nM and the GI50 [3] was 1 to 25 nM. The GI50 [4] was 2000 to 10000 nM, the GI50 [5] was 100 to 500 nM and the GI50 [6] was 25 to 100 nM.

Molecule COc1cc(N2CCC(N3CCN(C)CC3)CC2)ccc1Nc1ncc(Cl)c(Nc2cc3c(cc2NS(C)(=O)=O)CCO3)n1 [Example 220, N-(6-((5-chloro-2-((2-methoxy-4-(4-(4-methylpiperazin-1-yl)piperidin-1-yl)phenyl)amino)pyrimidin-4-yl)amino)-2,3-dihydrobenzofuran-5-yl)methanesulfonamide] has a GI50 [1] of 100 to 500 nM, a GI50 [2] of 25 to 100 nM and a GI50 [3] of 100 to 500 nM. The GI50 [4] was 25 to 100 nM, the GI50 [5] was 500 to 2000 nM and the GI50 [6] was 100 to 500 nM.

CN1CCN(C2CCN(c3ccc(Nc4ncc(Cl)c(Nc5cc6c(cc5NS(C)(=O)=O)CCO6)n4)c(Cl)c3)CC2)CC1 [Example 221, N-(6-((5-chloro-2-((2-chloro-4-(4-(4-methylpiperazin-1-yl)piperidin-1-yl)phenyl)amino)pyrimidin-4-yl)amino)-2,3-dihydrobenzofuran-5-yl)methanesulfonamide] gave a GI50 [1] of 25 to 100 nM, a GI50 [2] of 25 to 100 nM and a GI50 [3] of 25 to 100 nM. For the same molecule, the GI50 [4] was 500 to 2000 nM, the GI50 [5] was 100 to 500 nM and the GI50 [6] was 25 to 100 nM.
